Article PMC6503537, “Synthesis of HDAC Substrate Peptidomimetic Inhibitors Using Fmoc Amino Acids Incorporating Zinc-Binding Groups” (Organic Letters, 2019)
Starred links: 1 amine or outer side, 2 acyl side, 3 side chain; linkers in the order of their positions; H or OH if unused. Non-standard residues stand in square brackets, D forms with d. Residues, ends and D or L forms follow the SMILES beside them. *: point of attachment. X1 = CCC(=O)CCCCC[C@H](N[*:1])C(=O)[*:2]; Asu = N[C@@H](CCCCCC(=O)O)C(=O)O; NHOH = ON*

Legend:
[1] = system: various HDACs; design: method as in PMID 25738536; details: FDA approved HDAC inhibitors; cited from earlier work
[2] = target: HDAC1-MTA1-RBBP4 (Homo sapiens, UniProt Q09028+Q13330+Q13547); experiment: Fluorescence-based HDAC inhibition assay (BOC-Lys-AMC substrate); type: biochemical; details: 50 nM HDAC1-MTA1-RBBP4, 30 min at 37 °C
Experimental: SPIs 11–14 were assessed in a fluorescence-based inhibition assay to determine potency as HDAC inhibitors (Table 2). […] The lower activity of SPIs 12–13 can be attributed to the lower zinc binding affinity of ketones. In the future these amino acids will be incorporated in various histone tails to generate a library to identify important binding interactions through additional crystal structure studies. The cell permeability of these peptides will also be investigated to determine their usefulness as cellular probes.
HDAC activity was measured by using fluorescent BOC-Lys-AMC substrate in a black 96-well format. 50 nM HDAC1-MTA1-RBBP4 was incubated with inhibitor and 100 µM BOC-Lys-AMC substrate for 30 min at 37 °C in a final volume of 50 µl (50 mM Tris pH 7.5, 150 mM NaCl, 5% Glycerol). The assay was developed by the addition of 50 µl of developer solution (2 µM TSA, 10 mg ml -1 Trypsin, 50 mM Tris pH 7.5, 100 mM NaCl). Fluorescence was measured at 335/460 nm using a Victor X5 plate reader (Perkin Elmer). All measurements were performed in triplicate and data analysed using GraphPad Prism (version 7.0, GraphPad Software, Inc). In the case of titrations IC50 values were calculated by nonlinear curve fitting with a one-site binding (hyperbola) model (Y=Bmax*X/(Kd+X).
Sequence Yield Purity IC50 Retention time Peptide content
(1 picture or pasted object on this page, not shown here)

[3] = system: class I HDAC; details: cited from earlier work
From the text: These inhibitors function by coordinating with the HDAC active site zinc through a side chain that has zinc binding properties such as a hydroxamic acid or ethyl ketone.

Chain of HDAC1-MTA1-RBBP4 (Q13547 whole entry): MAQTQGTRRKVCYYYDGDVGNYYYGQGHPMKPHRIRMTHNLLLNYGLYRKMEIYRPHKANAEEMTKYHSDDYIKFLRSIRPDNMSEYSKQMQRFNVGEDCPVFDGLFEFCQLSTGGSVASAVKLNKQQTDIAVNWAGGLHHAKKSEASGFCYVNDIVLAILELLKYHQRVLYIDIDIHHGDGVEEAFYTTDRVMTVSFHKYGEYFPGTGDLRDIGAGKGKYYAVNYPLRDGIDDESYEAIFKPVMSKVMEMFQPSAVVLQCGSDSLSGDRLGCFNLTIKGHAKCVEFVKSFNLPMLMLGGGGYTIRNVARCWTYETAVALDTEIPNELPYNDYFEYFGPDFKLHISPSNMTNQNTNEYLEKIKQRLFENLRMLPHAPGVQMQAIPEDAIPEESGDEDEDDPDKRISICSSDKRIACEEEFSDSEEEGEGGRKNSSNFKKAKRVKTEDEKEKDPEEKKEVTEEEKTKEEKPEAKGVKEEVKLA
Chain of HDAC1-MTA1-RBBP4 (Q13330 whole entry partner): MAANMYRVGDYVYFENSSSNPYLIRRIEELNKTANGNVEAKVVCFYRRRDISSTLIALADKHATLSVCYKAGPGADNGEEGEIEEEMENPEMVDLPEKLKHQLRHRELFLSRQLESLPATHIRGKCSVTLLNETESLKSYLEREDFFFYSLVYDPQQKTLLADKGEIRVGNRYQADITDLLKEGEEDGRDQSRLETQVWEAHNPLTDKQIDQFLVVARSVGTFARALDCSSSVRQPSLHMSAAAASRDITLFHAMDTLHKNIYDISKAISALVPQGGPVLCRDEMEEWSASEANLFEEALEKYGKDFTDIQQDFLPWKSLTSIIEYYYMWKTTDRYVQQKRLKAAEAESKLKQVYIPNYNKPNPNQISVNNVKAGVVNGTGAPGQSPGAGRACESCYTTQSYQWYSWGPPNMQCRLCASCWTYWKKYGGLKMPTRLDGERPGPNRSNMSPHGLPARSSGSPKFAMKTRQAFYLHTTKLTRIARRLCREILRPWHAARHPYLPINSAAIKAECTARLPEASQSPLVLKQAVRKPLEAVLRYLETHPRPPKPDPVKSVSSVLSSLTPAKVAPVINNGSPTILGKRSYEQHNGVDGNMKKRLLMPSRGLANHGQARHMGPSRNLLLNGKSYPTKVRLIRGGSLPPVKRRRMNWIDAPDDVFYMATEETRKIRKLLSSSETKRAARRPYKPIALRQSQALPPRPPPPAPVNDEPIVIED
Chain of HDAC1-MTA1-RBBP4 (Q09028 whole entry partner): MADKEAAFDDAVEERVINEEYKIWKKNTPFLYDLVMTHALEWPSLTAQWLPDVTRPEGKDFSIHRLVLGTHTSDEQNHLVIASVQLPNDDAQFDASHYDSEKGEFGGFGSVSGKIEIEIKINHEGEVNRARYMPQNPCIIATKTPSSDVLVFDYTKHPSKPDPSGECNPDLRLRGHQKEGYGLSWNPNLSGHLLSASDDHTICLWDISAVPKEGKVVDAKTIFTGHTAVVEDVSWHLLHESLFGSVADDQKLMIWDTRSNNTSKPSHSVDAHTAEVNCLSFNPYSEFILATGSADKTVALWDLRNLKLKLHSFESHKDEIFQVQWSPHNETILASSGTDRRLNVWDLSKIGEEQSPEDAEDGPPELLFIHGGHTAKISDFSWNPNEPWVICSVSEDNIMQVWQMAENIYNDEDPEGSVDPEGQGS

Molecule | HDAC specificity, result in words [1] | other results
O=C(/C=C/c1cccc(S(=O)(=O)Nc2ccccc2)c1)NO [Belinostat] | nonspecific across various HDACs | –
Cc1[nH]c2ccccc2c1CCNCc1ccc(/C=C/C(=O)NO)cc1 [Panobinostat] | nonspecific across various HDACs | –
CC(=O)N[C@@H](CCCCN)C(=O)N[C@@H](C)C(=O)N[C@@H](C)C(=O)N[C@@H](CCCNC(=N)N)C(=O)N[C@@H](CCCCCC(=O)NO)C(=O)N[C@@H](CO)C(=O)N[C@@H](C)C(N)=O [SPI 11] (Ac-KAAR[Asu](NHOH)SA-NH2) | – | HDAC inhibition, result in words ([2]; BOC-Lys-AMC substrate, pH 7.5, tested concentration not given): comparable to our previously reported SPI based on the H4 peptide sequence
CCC(=O)CCCCC[C@H](NC(=O)[C@H](CCCNC(=N)N)NC(=O)[C@H](C)NC(=O)[C@H](C)NC(=O)[C@H](CCCCN)NC(C)=O)C(=O)N[C@@H](CO)C(=O)N[C@@H](C)C(N)=O [SPI 12] (Ac-KAAR[X1]SA-NH2) | – | IC50 ([2]; 100 M BOC-Lys-AMC substrate (so in the source), 50 mM Tris pH 7.5, 150 mM NaCl, 5% Glycerol, developer TSA/Trypsin, fluorescence 335/460 nm, triplicate, one-site binding fit, unit printed µM in SI): 17 µM
O=C(CCCCCCC(=O)Nc1ccccc1)NO [Vorinostat] | nonspecific across various HDACs | –
Apicidin A | – | HDAC inhibition, result in words [3]: class I selective HDAC inhibition in the nanomolar range
Romidepsin | nonspecific across various HDACs | –
